Test results as given in patent publication US20260234150A1, “COMPOUND FOR INHIBITING NLRP3, PREPARATION METHOD, AND USE” (DOVETREE MEDICINES UNUS, INC., priority 2023, published 2026).

Tests used:
Assay type in all cases: in vitro ADME
[1] = target: T1, CYP1A2 (Homo sapiens, UniProt P05177); experiment: CYP450 enzyme inhibition in human liver microsomes, CYP1A2; details: substrate Phenacetin, read-out: Inhibitory activity IC50 (μM) CYP1A2
T1 construct: 0.05 mg/mL liver microsome (BioIVT, IHG) phosphate buffer solution; tissue BioIVT IHG; host or cells: human liver microsomes
T1 sequence (P05177 1-516): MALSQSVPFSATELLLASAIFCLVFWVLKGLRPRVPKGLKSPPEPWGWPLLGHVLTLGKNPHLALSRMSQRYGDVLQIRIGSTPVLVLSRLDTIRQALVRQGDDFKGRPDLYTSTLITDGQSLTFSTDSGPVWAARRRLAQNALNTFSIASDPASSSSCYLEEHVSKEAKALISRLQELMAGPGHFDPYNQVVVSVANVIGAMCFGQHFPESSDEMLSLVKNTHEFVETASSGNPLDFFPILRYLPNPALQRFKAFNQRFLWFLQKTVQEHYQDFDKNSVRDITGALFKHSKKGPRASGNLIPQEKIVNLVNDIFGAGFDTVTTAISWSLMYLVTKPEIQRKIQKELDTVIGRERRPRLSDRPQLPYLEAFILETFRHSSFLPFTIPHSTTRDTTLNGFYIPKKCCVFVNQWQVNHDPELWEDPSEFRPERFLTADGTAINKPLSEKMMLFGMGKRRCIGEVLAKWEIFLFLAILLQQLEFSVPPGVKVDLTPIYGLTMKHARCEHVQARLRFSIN
Procedure: This experiment incubates the compound, liver microsomes and different CYP subtype enzyme substrates in a 37° C. water bath to measure the amount of substrate metabolites produced and evaluate the inhibitory effect of the compound of the present disclosure on CYP enzymes based on the IC50 value.
i. The compound was diluted to 0, 0.02 mM, 0.06 mM, 0.2 mM, 0.6 mM, 2 mM and 6 mM concentrations with DMSO (Aladdin, catalog number: D103273-500 ml).
ii. The enzyme substrate solutions of each CYP subtype were prepared by phosphate buffer (sigma: V900050-500G).
iii. Sample incubation. […] After centrifugation at 4000 rpm and 4° C. for 40 min, the supernatant was diluted with pure water according to the response of the substrate metabolites and then detected by UPLC-MS/MS (Sciex, Q-Trap 4500). […]
The inhibitory effect of the compound on each P450 enzyme in human liver microsomes was calculated as the percentage of reduced metabolite formation compared with the non-inhibitory control (i.e., blank DMSO). The IC50 value for each P450 enzyme in human liver microsomes was calculated using the logarithm of the remaining activity and the inhibitor concentration using Graphpad Prism software. […]

[2] = Liver microsome metabolic stability, mouse; details: mouse liver microsomes, 45 min incubation
Procedure: (§1) Purpose: This experiment investigates the metabolic stability of the compound in liver microsomes of different species such as humans, mice and rats, and the residual content of the test compound after incubation with liver microsomes of different species such as humans, mice and rats.
(§2) Preparation of 500 μM solution of target compound and positive control: 5 μL of each 10 mM stock solution was taken, added to 95 μL acetonitrile, and mixed for 30 s;
(§3) Preparation of 6 mM NADPH solution: 100 mM Stock aliquot liquid was diluted with Mg-Mg —K-Buffer.
(§4) 2.1.1 Liver microsome solution: 18.75 μL of 20 mg/mL HLM, RLM, MLM, DLM, MOLM (final concentration: 0.5 mg/ml) were taken and placed them in each well of a 96-well plate;
(§5) 2.1.2 1.5 μL of 500 μM solution of each compound was added respectively;
(§6) 2.1.3 479.8 μL of phosphate buffer was taken, then added to each compound well, and mixed at 1000 rpm in an oscillating mixer for 10 s.
(§7) 30 μL of the above samples were taken and aliquoted to a new 96-well plates respectively (including NADPH group, n=2, and no NADPH group at 0 and 45 min, n=1), marked as 0, 5, 15, 30 and 45 min; […]
(§8) The slope was calculated based on the LN value of the compound concentration percentage and time as the coordinate axis, and the residual content of the compound after incubation with liver microsomes was calculated based on the slope and formula. […]

[3] = Liver microsome metabolic stability, human; details: human liver microsomes, 45 min incubation
Procedure: as §1, §2, §3, §4, §5, §6, §7, §8

CC(=O)N1CCOC[C@H]1CNc1nc2nc(-c3c(C)cc(C(F)(F)F)cc3O)ccc2o1 [Compound 111]
IC50 [1]: > 30 µM | LMS (m)(% rem, 45 min) [2]: 91.34 % rem | LMS (h)(% rem, 45 min) [3]: 93.24 % rem
